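Where inhibition never reached the appropriate level, the endpoint shown equals the highest concentration tested. Otherwise, values were interpolated linearly from a five-concentration, 48-hour dose response in 96-well plates. Here, GI50 denotes the concentration required for 50% inhibition of growth.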 Activity calls are given as the source filed them. Rule as the data show it: active = GI50 up to about 1.1 µM and inactive = higher.
Columns and labels:
Test in all cases: NCI-60 cell line screen, 48 h
A549 = tested on: A549
EKVX = tested on: EKVX
HOP-92 = tested on: HOP-92
KM12 = tested on: KM12
NCI-H23 = tested on: NCI-H23
OVCAR-3 = tested on: OVCAR-3
OVCAR-4 = tested on: OVCAR-4
OVCAR-5 = tested on: OVCAR-5
SK-MEL-28 = tested on: SK-MEL-28
SK-MEL-2 = tested on: SK-MEL-2
SNB-75 = tested on: SNB-75
SR = tested on: SR
TK-10 = tested on: TK-10
U-251 = tested on: U-251
UACC-257 = tested on: UACC-257
UO-31 = tested on: UO-31
A498 = tested on: A498
LOX IMVI = tested on: LOX IMVI
OVCAR-8 = tested on: OVCAR-8
RXF 393 = tested on: RXF 393

Measured: GI50

O=c1ccc2nc3cc(Br)ccc3sc-2c1
inactive: A549 > 100 µM | EKVX > 100 µM | HOP-92 > 100 µM | KM12 > 100 µM | NCI-H23 > 100 µM | OVCAR-3 > 100 µM | OVCAR-4 29.4 µM | OVCAR-5 > 100 µM | SK-MEL-28 > 100 µM | SK-MEL-2 > 100 µM | SNB-75 > 100 µM | SR 33 µM | TK-10 > 100 µM | U-251 > 100 µM | UACC-257 > 100 µM | UO-31 > 100 µM

CCCCC(=O)c1c(O)nc2sccn2c1=O
inactive: A498 > 10 µM | A549 > 10 µM | EKVX > 10 µM | KM12 > 10 µM | LOX IMVI > 10 µM | NCI-H23 > 10 µM | OVCAR-3 > 10 µM | OVCAR-4 > 10 µM | OVCAR-5 > 10 µM | OVCAR-8 > 10 µM | RXF 393 > 10 µM | SK-MEL-28 > 10 µM | SK-MEL-2 > 10 µM | SNB-75 > 10 µM | SR > 10 µM | TK-10 > 10 µM | U-251 > 10 µM | UO-31 > 10 µM

c1ccc2c(c1)SP1Sc3ccccc3P21 (centres undefined)
inactive: A498 > 100 µM | A549 > 100 µM | EKVX > 100 µM | HOP-92 > 100 µM | KM12 > 100 µM | LOX IMVI > 83.6 µM | NCI-H23 > 100 µM | OVCAR-3 > 100 µM | OVCAR-4 72.3 µM | OVCAR-5 > 100 µM | OVCAR-8 > 89.3 µM | RXF 393 52.7 µM | SK-MEL-28 > 90.4 µM | SK-MEL-2 > 80.7 µM | SNB-75 61.9 µM | U-251 > 100 µM | UACC-257 > 100 µM | UO-31 68.1 µM

CN(C)CCCNC(=O)N/N=C/c1ccccn1
inactive: A498 > 10 µM | A549 > 10 µM | EKVX > 10 µM | HOP-92 > 10 µM | KM12 > 10 µM | LOX IMVI > 10 µM | OVCAR-4 > 10 µM | OVCAR-5 > 10 µM | OVCAR-8 > 10 µM | RXF 393 > 10 µM | SK-MEL-28 > 10 µM | SNB-75 > 10 µM | SR > 10 µM | TK-10 > 10 µM | UACC-257 9.42 µM | UO-31 > 10 µM

CC1(C)OC2CC(=O)OCC23C1CC(=O)C1(C)C3CCC2(C)C(c3ccoc3)OC(=O)C3OC321 (centres undefined)
inactive: A498 > 125 µM | A549 > 125 µM | EKVX > 58.1 µM | KM12 > 125 µM | LOX IMVI > 125 µM | NCI-H23 > 125 µM | OVCAR-3 > 125 µM | OVCAR-4 > 125 µM | OVCAR-5 > 125 µM | OVCAR-8 11.7 µM | RXF 393 > 117 µM | SK-MEL-28 > 125 µM | SK-MEL-2 > 125 µM | SNB-75 64.7 µM | U-251 > 125 µM | UACC-257 124 µM | UO-31 > 125 µM

COC1CCC(O)C(CO)O1 (centres undefined)
inactive: A549 > 100 µM | EKVX > 100 µM | HOP-92 > 100 µM | KM12 > 100 µM | LOX IMVI 23.3 µM | NCI-H23 > 100 µM | OVCAR-3 41.4 µM | OVCAR-4 > 100 µM | OVCAR-5 > 100 µM | OVCAR-8 > 100 µM | RXF 393 > 100 µM | SK-MEL-28 > 100 µM | SK-MEL-2 > 100 µM | SNB-75 > 100 µM | SR 45.3 µM | TK-10 > 100 µM | U-251 > 10 µM | UACC-257 37.4 µM | UO-31 > 100 µM

[O-][n+]1c2c([n+]([O-])c3ccccc31)-c1cccc3cccc-2c13
inactive: A498 > 100 µM | A549 > 100 µM | HOP-92 81.3 µM | KM12 > 100 µM | LOX IMVI 63 µM | NCI-H23 47.3 µM | OVCAR-3 > 100 µM | OVCAR-4 > 100 µM | OVCAR-8 > 100 µM | RXF 393 21.2 µM | SNB-75 18.4 µM | SR > 100 µM | TK-10 > 100 µM | U-251 43 µM | UACC-257 > 100 µM | UO-31 43 µM

Nc1ccc2c(c1)C(=O)N(O)C2=O
inactive: A498 > 100 µM | A549 > 100 µM | EKVX > 100 µM | KM12 > 100 µM | LOX IMVI > 100 µM | NCI-H23 > 100 µM | OVCAR-3 > 100 µM | OVCAR-4 > 100 µM | OVCAR-5 > 100 µM | RXF 393 > 100 µM | SK-MEL-28 > 100 µM | SNB-75 > 100 µM | SR > 100 µM | TK-10 > 100 µM | U-251 > 100 µM | UACC-257 > 100 µM | UO-31 > 100 µM

Cc1ccc2c(c1)C(=O)N(N(C)C)CC(=O)N2
inactive: A498 > 100 µM | A549 > 100 µM | EKVX > 100 µM | HOP-92 > 100 µM | KM12 > 100 µM | LOX IMVI > 100 µM | NCI-H23 > 100 µM | OVCAR-3 > 100 µM | OVCAR-4 > 100 µM | OVCAR-5 > 100 µM | OVCAR-8 > 100 µM | SK-MEL-28 > 100 µM | SK-MEL-2 > 100 µM | SNB-75 35.2 µM | SR > 100 µM | TK-10 > 100 µM | U-251 > 100 µM | UACC-257 > 100 µM | UO-31 > 100 µM

O=C(O)C12CCCC(CCC1)C2
inactive: A498 > 100 µM | A549 > 100 µM | EKVX > 100 µM | HOP-92 > 100 µM | KM12 > 100 µM | LOX IMVI > 100 µM | NCI-H23 > 100 µM | OVCAR-3 > 100 µM | OVCAR-4 > 100 µM | OVCAR-5 > 100 µM | OVCAR-8 > 100 µM | RXF 393 > 100 µM | SK-MEL-28 > 100 µM | SK-MEL-2 > 100 µM | SNB-75 > 100 µM | TK-10 > 100 µM | U-251 > 100 µM | UACC-257 > 100 µM | UO-31 > 100 µM

CN(C)C(=O)OCOC(=O)N(C)C
inactive: A498 > 100 µM | A549 > 100 µM | EKVX > 100 µM | HOP-92 > 92.5 µM | KM12 > 100 µM | LOX IMVI > 100 µM | NCI-H23 > 100 µM | OVCAR-3 > 100 µM | OVCAR-4 > 100 µM | OVCAR-5 > 100 µM | OVCAR-8 > 100 µM | RXF 393 > 100 µM | SK-MEL-28 > 100 µM | SK-MEL-2 > 100 µM | SNB-75 > 82.8 µM | U-251 > 100 µM | UO-31 > 100 µM

CC(C)(C)[Si](C)(C)OCC1OC(n2cnc3c(N)ncnc32)CC1O (centres undefined)
inactive: A498 81.8 µM | KM12 39.6 µM | LOX IMVI > 100 µM | NCI-H23 79.4 µM | OVCAR-3 51.2 µM | OVCAR-4 71.4 µM | OVCAR-5 60.8 µM | OVCAR-8 87.9 µM | RXF 393 20.6 µM | SK-MEL-28 > 100 µM | SK-MEL-2 56.1 µM | SNB-75 > 100 µM | SR 34.8 µM | TK-10 > 100 µM | U-251 > 100 µM | UACC-257 > 100 µM | UO-31 13 µM
